# Values of other authors, collected in US20020054924A1, “Novel compositions derived from cranberry and grapefruit and therapeutic uses therefor” (priority 2000, published 2002).
# System: cholesterol
# Details: chickens
substance,measurement,value
tocotrienol [Extract T3],hypocholesterolemic effect compared with Lovastatin,twice as effective as Lovastatin™
